Reference: ChEMBL document CHEMBL5331104, “Discovery of BRD4-HDAC Dual Inhibitors with Improved Fungal Selectivity and Potent Synergistic Antifungal Activity against Fluconazole-Resistant Candida albicans” (J Med Chem, 2023)
In brackets after ≈: the same amount, converted by molar mass.

Tests used:
[1] = tested on: Candida albicans; assay: Antifungal activity against Candida albicans SC5314 assessed as fungal growth inhibition incubated for 24 hrs by broth dilution method; assay type: functional
[2] = tested on: Candida albicans; assay type: functional, 0304103; conditions: time 24 hrs
Description: Synergetic antifungal activity against Candida albicans 0304103 assessed as fractional inhibitory concentration index incubated for 24 hrs in the presence of fluconazole by checkerboard microdilution method

[3] = tested on: Candida albicans; assay: microbe, parasite or virus in culture; assay type: functional; conditions: 0304103
Description: Antifungal activity against Candida albicans 0304103 assessed as microbial growth inhibition

[4] = tested on: HEL; assay: Antiproliferative activity against human HEL cells incubated for 48 hrs by CCK8 assay; assay type: functional, cell-based
[5] = tested on: Cryptococcus neoformans; assay: Antifungal activity against Cryptococcus neoformans H99 assessed as fungal growth inhibition incubated for 24 hrs by broth dilution method; assay type: functional
[6] = tested on: Candida albicans; assay: microbe, parasite or virus in culture; assay type: functional; conditions: 0304103, time 24 hrs
Description: Synergetic antifungal activity against Candida albicans 0304103 assessed as microbial growth inhibition incubated for 24 hrs in the presence of fluconazole by checkerboard microdilution method

[7] = tested on: K562; assay: Antiproliferative activity against human K562 cells incubated for 48 hrs by CCK8 assay; assay type: functional, cell-based; conditions: K562, 48 h
[8] = molecular target: Histone deacetylase 1 (Homo sapiens, UniProt Q13547); assay: Inhibition of full-length recombinant human HDAC1 (1 to 482 residues) expressed in baculovirus infected insect cells using […] as substrate incubated for 30 mins by fluorescence based analysis; design: species or system Insect cell
Sequence of Histone deacetylase 1 (Q13547 whole entry, the tested form may be a part): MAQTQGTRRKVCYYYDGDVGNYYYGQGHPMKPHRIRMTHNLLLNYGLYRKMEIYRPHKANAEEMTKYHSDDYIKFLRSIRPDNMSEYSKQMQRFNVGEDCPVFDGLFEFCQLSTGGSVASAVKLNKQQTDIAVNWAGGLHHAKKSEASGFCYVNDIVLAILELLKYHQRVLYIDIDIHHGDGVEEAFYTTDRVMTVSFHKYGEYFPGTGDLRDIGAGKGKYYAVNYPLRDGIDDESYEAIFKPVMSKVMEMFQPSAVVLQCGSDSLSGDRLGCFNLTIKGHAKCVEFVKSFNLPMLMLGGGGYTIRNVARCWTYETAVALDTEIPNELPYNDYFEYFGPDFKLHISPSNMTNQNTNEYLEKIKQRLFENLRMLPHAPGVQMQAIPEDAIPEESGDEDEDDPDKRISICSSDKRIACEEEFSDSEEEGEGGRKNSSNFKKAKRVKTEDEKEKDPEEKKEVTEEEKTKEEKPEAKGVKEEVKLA

[9] = tested on: HL-60; assay: Antiproliferative activity against human HL-60 cells incubated for 48 hrs by CCK8 assay; assay type: functional, cell-based; conditions: HL-60, 48 h
[10] = molecular target: Histone deacetylase; assay: Inhibition of total HDAC in human HUVEC cells using Boc-Lys(Ac)-AMC as substrate preincubated for 12 hrs followed by substrate addition measured after 6 hrs by microtiter plate reader analysis; assay type: cell-based
[11] = in vitro; conditions: human, HUVEC cells
Description: Cytotoxicity against HUVECs assessed as inhibition of cell growth incubated for 48 hrs by CCK8 assay

Compound	MIC80 [1] [µg/mL]	fractional inhibitory concentration index (FICI) [2]	MIC80 [3] [µg/mL]	IC50 [4] [µM]	MIC80 [5] [µg/mL]	MIC80 [6] [µg/mL]	IC50 [7] [µM]	IC50 [8] [nM]	IC50 [9] [µM]	IC50 [10] [nM]	IC50 at 48 h [11] [µM]
Cc1nnc2n1-c1sc3c(c1C(c1ccc(Cl)cc1)=N[C@H]2CC(=O)Nc1ccc(/C=C/C(=O)NO)cc1)CCCC3	> 64	0.066	> 64	> 10	4 (≈ 6.81 µM)	4 (≈ 6.81 µM)	2.4	790	5.1	150	4.7
Cc1ccc(C2=N[C@@H](CC(=O)Nc3ccc(CC(=O)NO)cc3)c3nnc(C)n3-c3ccccc32)cc1	> 64	0.14	> 64	> 10	32 (≈ 64.7 µM)	8 (≈ 16.2 µM)	> 10	2900	5.1	3800	33
Cc1nnc2n1-c1ccccc1C(c1ccc(Cl)cc1)=N[C@H]2CC(=O)NCc1ccc(C(=O)NO)cc1	> 64	0.28	> 64	> 10	32 (≈ 62.1 µM)	16 (≈ 31.1 µM)	> 10	560	7.1	2700	23
Cc1nnc2n1-c1ccc(Cl)cc1C(c1ccccc1Cl)=N[C@H]2CC(=O)Nc1ccc(/C=C/C(=O)NO)cc1	> 64	0.07	> 64	8.3	8 (≈ 14.2 µM)	4 (≈ 7.12 µM)	3.1	1300	4.2	35	7.3
Cc1nnc2n1-c1ccccc1C(c1ccccc1)=N[C@H]2CC(=O)Nc1ccc(C(=O)NO)cc1	> 64	0.094	> 64	> 10	16 (≈ 34.3 µM)	4 (≈ 8.57 µM)	3.3	62	1.7	65	25
Cc1ccc(C2=N[C@@H](CC(=O)Nc3ccc(C(=O)NO)cc3)c3nnc(C)n3-c3ccccc32)cc1	> 64	0.078	> 64	0.39	32 (≈ 66.6 µM)	4 (≈ 8.32 µM)	> 10	51000	0.34	130	2.8
Cc1nnc2n1-c1ccccc1C(c1ccccc1)=N[C@H]2CC(=O)Nc1ccc(CC(=O)NO)cc1	> 64	0.19	> 64	> 10	32 (≈ 66.6 µM)	8 (≈ 16.6 µM)	> 10	730	4.4	6500	24
Cc1ccc(C2=N[C@@H](CC(=O)NCc3ccc(C(=O)NO)cc3)c3nnc(C)n3-c3ccccc32)cc1	> 64	0.14	> 64	7	32 (≈ 64.7 µM)	8 (≈ 16.2 µM)	> 10	890	> 10	5800	20
Cc1nnc2n1-c1ccccc1C(c1ccccc1)=N[C@H]2CC(=O)NCc1ccc(C(=O)NO)cc1	> 64	0.14	> 64	> 10	32 (≈ 66.6 µM)	8 (≈ 16.6 µM)	> 10	250	5.7	2800	17
